Measurements: patent US20030187240A1, “2' -modified oligonucleotides” (ISIS Pharmaceuticals, Inc., priority 1990, published 2003)
“Also recorded” adds a separate entry of the source. Values belong to the substance of their own block, whether it stands above or below them. Strand notation (5' to 3'): a small letter for the sugar, then the base; units joined by * are phosphorothioate-linked, units joined directly phosphodiester-linked; [ ] holds rarer units or linkages, { } end groups; capitals alone tell only the bases. [OPr] = 2'-O-propyl nucleotide; [OPent] = 2'-O-pentyl nucleotide; d = 2'-deoxy (DNA); m = 2'-O-methyl; f = 2'-fluoro

Tests used:
[1] = test system: crude HeLa cellular extracts
H-ras = test: ras transactivation reporter gene assay; type: cell-based; conditions: for IC50: antisense activity against H-ras, 17-mer with 7-deoxy gap
Text: The expression plasmid pSV2-oli, containing an activated (codon 12, GGC→GTC) H-ras cDNA insert under control of the constitutive SV40 promoter, was a gift from Dr. Bruno Tocque (Rhone-Poulenc Sante, Vitry, France). This plasmid was used as a template to construct, by PCR, a H-ras expression plasmid under regulation of the steroid-inducible mouse mammary tumor virus (MMTV) promoter. To obtain H-ras coding sequences, the 570 bp coding region of the H-ras gene was amplified by PCR. The PCR primers were designed with unique restriction endonuclease sites in their 5′-regions to facilitate cloning. The PCR product containing the coding region of the H-ras codon 12 mutant oncogene was gel purified, digested, and gel purified once again prior to cloning. This construction was completed by cloning the insert into the expression plasmid pMAMneo (Clontech Laboratories, Calif.).
The ras-responsive reporter gene pRD053 was used to detect ras expression. [Owen et al., Proc. Natl. Acad. Sci. U.S.A., 87, 3866 (1990).

[2] = test system: 25 mer oligoribonucleotide complement; test: Melting curves of 2′-modified 17-mers with 7-deoxy gap; type: binding; conditions: 17-mer with 7-deoxy gap hybridized with 25 mer oligoribonucleotide complement
Text: This is attributed to these phosphodiester compounds being substrates for nucleases that degrade such phosphodiester compounds thus preventing them potentially activating RNase H. Other sugar modifications: The effects of other 2′ sugar modifications besides 2′-O-methyl on antisense activity in chimeric oligonucleotides have been examined. These modifications are listed in Table 4, along with the Tm values obtained when 17 mer oligonucleotides having 2′-modified nucleotides flanking a 7-base deoxy gap were hybridized with a 25 mer oligoribonucleotide complement as described in Example 25. […] As alkyl length increased, Tm decreased.
Absorbance vs. temperature curves were measured at 260 nm using a Gilford 260 spectrophotometer interfaced to an IBM PC computer and a Gilford Response II spectrophotometer. The buffer contained 100 mM Na^+, 10 mM phosphate and 0.1 mM EDTA, pH 7. Oligonucleotide concentration was 4 μM each strand determined from the absorbance at 85° C. and extinction coefficients calculated according to Puglisi and Tinoco [Methods in Enzymol., 180, 304 (1989). Tm values, free energies of duplex formation and association constants were obtained from fits of data to a two state model with linear sloping baselines. [Petersheim and Turner, Biochemistry, 22, 256 (1983). Reported parameters are averages of at least three experiments. For some oligonucleotides, free energies of duplex formation were also obtained from plots of Tm^−1 vs log10 (concentration). Borer et al., J. Mol. Biol., 86, 843 (1974).

PKC-α mRNA = PKC-α mRNA levels by Northern blot analysis; type: cell-based, human; conditions: FIGS. 3, 4 and 5; result in words
Protocol: Oligonucleotides having SEQ ID NO: 4 were synthesized as uniformly phosphorothioate chimeric oligonucleotides having a centered deoxy gap of varying lengths flanked by 2′-O-methylated regions. These oligonucleotides (500 nM concentration) were tested for effects on PKC-α mRNA levels by Northern blot analysis.

c-raf mRNA = test: Northern blot analysis of inhibition of c-raf mRNA expression in T24 cells; type: cell-based, human
Text: Chimeric oligonucleotides having SEQ ID NO: 7 were designed using the Genbank c-raf sequence HUMRAFR (Genbank listing x03484), synthesized and tested for inhibition of c-raf mRNA expression in T24 bladder carcinoma cells using a Northern blot assay. These chimeric oligonucleotides have central “gap” regions of 6, 8 or 10 deoxynucleotides flanked by two regions of 2′-O-methyl modified nucleotides, and are shown in Table 10. Backbones were uniformly phosphorothioate. […] These oligonucleotides are preferred.
The human urinary bladder cancer cell line T24 was obtained from the American Type Culture Collection (Rockville, Md.). Cells were grown in McCoy's 5A medium with L-glutamine (GIBCO-BRL, Gaithersburg, Md.), supplemented with 10% heat-inactivated fetal calf serum and 50 U/ml each of penicillin and streptomycin. Cells were seeded on 100 mm plates. When they reached 70% confluency, they were treated with oligonucleotide. Plates were washed with 10 ml prewarmed PBS and 5 ml of OptiMEM reduced-serum medium containing 2.5 μl DOTMA. Oligonucleotide with lipofectin was then added to the desired concentration. After 4 hours of treatment, the medium was replaced with McCoy's medium. Cells were harvested 24 to 72 hours after oligonucleotide treatment and RNA was isolated using a standard CsCl purification method. [Kingston in Current Protocols in Molecular Biology, F. M. Ausubel, R. Brent, R. E. Kingston, D. D. Moore, J. A. Smith, J. G. Seidman and K. Strahl, Eds., John Wiley and Sons, New York.] Total RNA was isolated by centrifugation of cell lysates over a CsCl cushion. RNA samples were electrophoresed through 1.2% agarose-formaldehyde gels and transferred to hybridization membranes by capillary diffusion over a 12-14 hour period. The RNA was cross-linked to the membrane by exposure to UV light in a Stratalinker (Stratagene, La Jolla, Calif.) and hybridized to random-primed ^32P-labeled c-raf cDNA probe (obtained from ATCC) or G3PDH probe as a control. RNA was quantitated using a Phosphorimager (Molecular Dynamics, Sunnyvale, Calif.).

[3] = test system: codon-12 point mutation of mutant (activated) H-ras RNA; type: cell-based, human
ras mRNA = test: Northern blot analysis of ras expression in T24 cells; type: cell-based, human; conditions: result in words
Protocol: The human urinary bladder cancer cell line T24 was obtained from the American Type Culture Collection (Rockville Md.). Cells were grown in McCoy's 5A medium with L-glutamine (GIBCO-BRL, Gaithersburg, Md.), supplemented with 10% heat-inactivated fetal calf serum and 50 U/ml each of penicillin and streptomycin. Cells were seeded on 100 mm plates. When they reached 70% confluency, they were treated with oligonucleotide. Plates were washed with 10 ml prewarmed PBS and 5 ml of OptiMEM (GIBCO) reduced-serum medium containing 2.5 μl DOTMA. Oligonucleotide was then added to the desired concentration. After 4 hours of treatment, the medium was replaced with McCoy's medium. Cells were harvested 48 hours after oligonucleotide treatment and RNA was isolated using a standard CsCl purification method. [Kingston in Current Protocols in Molecular Biology, F. M. Ausubel, R. Brent, R. E. Kingston, D. D. Moore, J. A. Smith, J. G. Seidman and K. Strahl, Eds., John Wiley and Sons, New York.] The human epithelioid carcinoma cell line HeLa 229 was obtained from the American Type Culture Collection (Bethesda, Md.). HeLa cells were maintained as monolayers on 6-well plates in Dulbecco's Modified Eagle's medium (DMEM) supplemented with 10 fetal bovine serum and 100 U/ml penicillin. Treatment with oligonucleotide and isolation of RNA were essentially as described above for T24 cells.
Northern hybridization: 10 μg of each RNA was electrophoresed on a 1.2% agarose/formaldehyde gel and transferred overnight to GeneBind 45 nylon membrane (Pharmacia LKB, Piscataway, N.J.) using standard methods. [Kingston in Current Protocols in Molecular Biology, F. M. Ausubel, R. Brent, R. E. Kingston, D. D. Moore, J. A. Smith, J. G. Seidman and K. Strahl, Eds., John Wiley and Sons, New York.] RNA was UV-crosslinked to the membrane. Double-stranded ^32P-labeled probes were synthesized using the Prime a Gene labeling kit (Promega, Madison Wis.). The ras probe was a SalI-NheI fragment of a cDNA clone of the activated (mutant) H-ras mRNA having a GGC-to-GTC mutation at codon-12. The control probe was G3PDH. Blots were prehybridized for 15 minutes at 68° C. with the QuickHyb hybridization solution (Stratagene, La Jolla, Calif.). The heat-denatured radioactive probe (2.5×10^6 counts/2 ml hybridization solution) mixed with 100 μl of 10 mg/ml salmon sperm DNA was added and the membrane was hybridized for 1 hour at 68° C. The blots were washed twice for 15 minutes at room temperature in 2×SSC/0.1% SDS and once for 30 minutes at 60° C. with 0.1×SSC/0.1%SDS. Blots were autoradiographed and the intensity of signal was quantitated using an ImageQuant PhosphorImager (Molecular Dynamics, Sunnyvale, Calif.). Northern blots were first hybridized with the ras probe, then stripped by boiling for 15 minutes in 0.1×SSC/0.1%SDS and rehybridized with the control G3PDH probe to check for correct sample loading.

Substance: 4248 (CCACACCGACGGCGCCC; 2'-O-methyl wings, mixed phosphorothioate/phosphodiester, pattern not given here) [Oligonucleotide 4248]
degradation in HeLa cell extract [1]: no degradation after 5 hours

IC50 (H-ras): 10 nM
Substance: C^FC^FA^F C^FA^FCd CdGdAd CdGdGd C^FG^FC^F C^FC^F [Oligonucleotide 4690]
antisense activity against H-ras (inhibition of ras expression) (H-ras): most active
Tm (° C.) ([2]; listed as 2′-fluoro chimeric oligonucleotide): highest Tm of the series
Tm (° C.) ([2]; listed as Fluoro): 7 °C

Substance: 3522 (AsAsAsAsCsGsTsCsAsGsCsCsAsTsGsGsTsCsCsC; 2'-O-methyl/deoxy chimeric, phosphorothioate, as printed in the source, key not given here) [Oligonucleotide 3522]
effect on PKC-α mRNA levels (PKC-α mRNA): show reduction of PKC-α mRNA

T½ [1]: ~3.2 h
Substance: CsCsAsCsAsCsCoGoAoCoGsGsCsGsCsCsC [Oligonucleotide 4593]

Substance: 7856 (dT*dT*dC*dT*dC*dG*dC*dC*dC*dG*dC*dT*dC*dC*dT*dC*dC*dT*dC*dC) [Oligonucleotide 7856]
inhibition of c-raf mRNA expression (c-raf mRNA): > 70%

Substance: 5352 (AAAACGTCAGCCATGGTCCC; sugars from the 5' end m6 d6 m8, all phosphorothioate, methylation of C and T or U not given here) [Oligonucleotide 5352]
effect on PKC-α mRNA levels (PKC-α mRNA): show reduction of PKC-α mRNA; also recorded: most active

Substance: 4233 (CCACACCGACGGCGCCC; 2'-O-methyl wings, mixed phosphorothioate/phosphodiester, pattern not given here) [Oligonucleotide 4233]
T½ [1]: 7 h

T½ [1]: ~3.75 h
Substance: CsCsAsCsAsCsCsGoAoCoGsGsCsGsCsCsC [Oligonucleotide 4551]

T½ [1]: 1.75 h
Substance: CsCsAsCsAsCsCoGoAoCoGoGsCsGsCsCsC [Oligonucleotide 4606]

Substance: Oligonucleotide 4689: SEQ ID NO: 1, 2′-fluoro-modified nucleotides flanking a 5-deoxy gap (CCACACCGACGGCGCCC; sugars from the 5' end f6 d5 f6, backbone and methylation of C not given here)
antisense activity against H-ras (inhibition of ras expression) (H-ras): also active

Substance: CsCsAsCoAoCoCoGoAoCoGoGoCoGsCsCsC [Oligonucleotide 4241]
T½ [1]: 0.9 h
effect on ras expression (ras-luciferase reporter system), chimeric backbone-modified oligonucleotides [3]: completely inactive

Substance: 7082 (dT*dC*dT*dC*dG*dC*dT*dG*dG*dT*dG*dA*dG*dT*dT*dT*dC; antisense) [Oligonucleotide 7082]
effect on PKC-α mRNA levels (PKC-α mRNA): most active in reducing PKC-α mRNA levels

Substance: 6632 (dT*dT*dC*dT*dC*dG*dC*dT*dG*dG*dT*dG*dA*dG*dT*dT*dT*dC; antisense) [Oligonucleotide 6632]
effect on PKC-α mRNA levels (PKC-α mRNA): most active in reducing PKC-α mRNA levels

IC50 (H-ras): 20 nM
Substance: C^MC^MA^M C^MA^MCd CdGdAd CdGdGd C^MG^MC^M C^MC^M [Oligonucleotide 3985]
Tm (° C.) [2]: 7 °C
inhibition of ras expression in T24 cells (ras mRNA): inhibited

Substance: O-Propyl: 17-mer CCACACCGACGGCGCCC with 2′-O-propyl nucleotides flanking a 7-base deoxy gap (sugars from the 5' end [OPr]5 d7 [OPr]5, backbone and methylation of C not given here)
IC50 (H-ras): 70 nM
Tm (° C.) [2]: 7 °C
inhibition of ras expression in T24 cells (ras mRNA): inhibited

Substance: 7294 (AAAACGTCAGCCATGGTCCC; sugars from the 5' end [OPr]6 d14, linkages s1 o4 s9 o4 s1 (s phosphorothioate, o phosphodiester), methylation of C not given here) [Oligonucleotide 7294]
effect on PKC-α mRNA levels (PKC-α mRNA): more active than their 2′-O-methyl counterparts at lowering PKC-α mRNA levels

T½ [1]: approximately 5.5 hours
Substance: CsCsAsCsAsCsCsGoAoCsGsGsCsGsCsCsC [Oligonucleotide 4546]

Substance: 7008 (mA*mAmAmAmCdG*dT*dC*dA*dG*dC*dC*dA*dT*dGdGdTdCdC*dC) [Oligonucleotide 7008]
effect on PKC-α mRNA levels (PKC-α mRNA): show reduction of PKC-α mRNA

Substance: O-Pentyl: 17-mer CCACACCGACGGCGCCC with 2′-O-pentyl nucleotides flanking a 7-base deoxy gap (sugars from the 5' end [OPent]5 d7 [OPent]5, backbone and methylation of C not given here)
IC50 (H-ras): 150 nM
Tm (° C.) [2]: 6 °C
